Measurements published in ChEMBL document CHEMBL3137667, “[Drug-induced liver injury; fourteenth updated edition of the bibliographic database of liver injuries and related drugs]” (Gastroenterol Clin Biol, 2004).

What was measured:
[1] = human
[2] = human; remark: listed apart in the source
[3] = human; remark: listed apart in the source
[4] = human; remark: listed apart in the source
[5] = Highest frequency of moderate liver toxicity observed during clinical trials, expressed as a percentage. [column '% BIOL' in source]; settings: human
[6] = human, serum
[7] = human; remark: listed apart in the source
[8] = human, serum, 4383 h
[9] = human; remark: listed apart in the source
[10] = Highest frequency of acute liver toxicity observed during clinical trials, expressed as a percentage. [column '% AIGUE' in source]; settings: human
[11] = human; remark: listed apart in the source
[12] = Times to onset, minimal and maximal, observed in the indexed observations. [column 'DELAI' in source]; settings: human
[13] = human; remark: listed apart in the source
[14] = Proposed mechanism(s) of liver damage. [column 'MEC' in source]; settings: human
[15] = Presence of at least one case with successful reintroduction. [column 'REINT' in source]; settings: human
[16] = human, serum; remark: listed apart in the source
[17] = human; remark: listed apart in the source
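Wherever Hepatotoxicity (association with vascular disease) is given: count of indexed literature references reporting vascular liver injury in humans, e.g. peliosis hepatitis, hepatic veno-occlusive disease or Budd-Chiari syndrome.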
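Wherever Hepatotoxicity (benign tumour) is given: value is a count of indexed literature references citing a benign tumour confirmed by histopathology.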
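Wherever Hepatotoxicity (choleostasis) is given: human cholestatic liver injury, shown by histopathology or by peak ALT or AST elevation over alkaline phosphatase ratio below 2, value counts indexed literature reports.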
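Wherever Hepatotoxicity (chronic liver disease) is given: chronic liver injury confirmed by histopathology or persistently raised serum aminotransferase activity beyond 6 months, value given as the count of indexed literature references.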
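Wherever Hepatotoxicity (cirrhosis) is given: value is a count of indexed literature references reporting cirrhosis confirmed by histopathology.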
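Wherever Hepatotoxicity (cytolytic) is given: human cytolytic liver injury, shown by histopathology or by a ratio above 5 of peak ALT or AST elevation to alkaline phosphatase elevation, value counts indexed references.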
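Wherever Hepatotoxicity (granulomatous hepatitis) is given: value is a count of indexed literature references reporting granulomatous liver disease confirmed by histopathology.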
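Wherever Hepatotoxicity (malignant tumour) is given: malignant tumour confirmed by histopathology, value gives the count of indexed literature references reporting it.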
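Wherever Hepatotoxicity (severe hepatitis) is given: human clinical data: severe hepatitis, meaning potentially life-threatening liver failure or clinically observed cases, the value counts how many indexed literature references report it.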
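Wherever Hepatotoxicity (steatosis) is given: steatosis confirmed by histopathology, value is the count of indexed references.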

Row | SMILES | Hepatotoxicity (granulomatous hepatitis) [1] | Hepatotoxicity (steatosis) [2] | Hepatotoxicity (cirrhosis) [3] | Hepatotoxicity (cytolytic) [4] | Hepatotoxicity (moderate) [5] | Hepatotoxicity (moderate) [6] | Hepatotoxicity (malignant tumour) [7] | Hepatotoxicity (chronic liver disease) [8] | Hepatotoxicity (choleostasis) [9] | Hepatotoxicity (acute) [10] | Hepatotoxicity (benign tumour) [11] | Hepatotoxicity (time to onset) [12] | Hepatotoxicity (severe hepatitis) [13] | Hepatotoxicity (mechanism) [14] | Hepatotoxicity (successful reintroduction) [15] | Hepatotoxicity (acute) [16] | Hepatotoxicity (association with vascular disease) [17] | Hepatotoxicity (moderate) ([5]; Liver) | Hepatotoxicity (severe hepatitis) ([13]; Liver) | also measured
1 | Nc1nc2ccc(OC(F)(F)F)cc2s1 [RILUZOLE] | 0 | 1 | 0 | 5 | 17% | 5 | 0 | 0 | 0 | 3.8% | 0 | 15 days - 9 months | 0 | Dose-dependant | yes | 5 | – | – | – | –
2 | CCCC(C)C1(CC)C(=O)NC(=S)NC1=O (configuration not stated) [THIOPENTAL] | 0 | 1 | 0 | 1 | 87% | 4 | 0 | 0 | 0 | 0% | 0 | 1 day - 5 days | 0 | Dose-dependant | yes | 2 | 0 | – | – | –
3 | COC(=O)C1=C(C)NC(C)=C(C(=O)OC)C1c1ccccc1[N+](=O)[O-] [NIFEDIPINE] | 0 | 3 | 0 | 5 | 12% | 6 | 0 | 0 | 7 | 4% | 0 | 2 days - 6 years | 2 | Allergic | yes | – | – | – | – | –
4 | CC[C@@]1(O)C[C@H](O[C@H]2C[C@H](N(C)C)[C@H](O[C@H]3C[C@H](O)[C@H](O[C@H]4CCC(=O)[C@H](C)O4)[C@H](C)O3)[C@H](C)O2)c2c(cc3c(c2O)C(=O)c2c(O)cccc2C3=O)[C@H]1C(=O)OC [ACLARUBICIN] | 0 | 0 | 0 | 0 | 26.7% | 8 | 0 | 0 | 0 | 0% | 0 | – | 1 | Dose-dependant | yes | 0 | 0 | – | – | –
5 | CCCC(=O)Nc1ccc(OCC(O)CNC(C)C)c(C(C)=O)c1 (configuration not stated) [ACEBUTOLOL] | 0 | 0 | 0 | 1 | – | 0 | 0 | 0 | 1 | – | 0 | 1 day - 1 month | – | Allergic | yes | – | 0 | 0% | 0 | Hepatotoxicity (acute) ([10]; Liver): 0%
6 | CN(C)C(=N)N=C(N)N [METFORMIN] | – | 0 | 0 | – | – | 1 | 0 | 0 | – | – | 0 | 1 week - 17 months | – | – | yes | 10 | 0 | 0% | 0 | Hepatotoxicity (granulomatous hepatitis) ([1]; Liver): 0; Hepatotoxicity (cytolytic) ([4]; Liver): 3; Hepatotoxicity (choleostasis) ([9]; Liver): 6; Hepatotoxicity (acute) ([10]; Liver): 0%
7 | C[C@H]1C[C@@H]2[C@H]([C@@H](O)C[C@@]3(C)[C@H]2CC[C@]3(O)C(=O)CO)[C@@]2(C)C=CC(=O)C=C12 [METHYLPREDNISOLONE] | 0 | 2 | 0 | 2 | 0% | 0 | 0 | 0 | 0 | 0% | 0 | 40 days | 0 | – | yes | 2 | 0 | – | – | –
8 | O=C1NS(=O)(=O)c2ccccc21 [SACCHARIN] | – | 0 | 0 | – | – | 0 | 0 | 0 | – | – | 0 | 2 weeks - 2 months | – | – | yes | 1 | 0 | 0% | 0 | Hepatotoxicity (granulomatous hepatitis) ([1]; Liver): 0; Hepatotoxicity (cytolytic) ([4]; Liver): 1; Hepatotoxicity (choleostasis) ([9]; Liver): 0; Hepatotoxicity (acute) ([10]; Liver): 0%
9 | O=C1C(O)=C([C@H]2CC[C@H](c3ccc(Cl)cc3)CC2)C(=O)c2ccccc21 [ATOVAQUONE] | 0 | 0 | 0 | 2 | 16% | 9 | 0 | 0 | 0 | 5.3% | 0 | 10 days - 6 weeks | 0 | – | yes | 2 | 0 | – | – | –
10 | O=C1c2ccccc2C(=O)C1c1ccc(F)cc1 [FLUINDIONE] | 0 | 0 | 0 | 5 | 0% | 0 | 0 | 0 | 1 | 0% | 0 | 1 week - 3 months | 0 | – | yes | 7 | 0 | – | – | –
11 | C[C@]12C/C(=C/O)C(=O)C[C@@H]1CC[C@@H]1[C@@H]2CC[C@@]2(C)[C@H]1CC[C@]2(C)O [OXYMETHOLONE] | 0 | 0 | 0 | 1 | 50% | 2 | 14 | 0 | 3 | 52.8% | 11 | 11 days - 15 years | 2 | – | yes | 10 | 12 | – | – | –
12 | Clc1ccc2nsnc2c1NC1=NCCN1 [TIZANIDINE] | – | 1 | 0 | – | – | 2 | 0 | 0 | – | – | 0 | 6 days - 3.5 months | – | – | yes | – | 0 | 0% | 2 | Hepatotoxicity (granulomatous hepatitis) ([1]; Liver): 0; Hepatotoxicity (cytolytic) ([4]; Liver): 1; Hepatotoxicity (choleostasis) ([9]; Liver): 0; Hepatotoxicity (mechanism) ([14]; Liver): Allergic
13 | CC(=O)S[C@@H]1CC2=CC(=O)CC[C@]2(C)[C@H]2CC[C@@]3(C)[C@@H](CC[C@@]34CCC(=O)O4)[C@H]12 [SPIRONOLACTONE] | 0 | 0 | 0 | 3 | 0% | 0 | 0 | 0 | 3 | 0% | 0 | 6 weeks - 2 months | 0 | – | yes | 3 | 0 | – | – | –
